US9539272B2, “HDAC 6 inhibitor-based methods for treating cancer” (SLOAN-KETTERING INSTITUTE FOR CANCER RESEARCH, priority 2009, dated 2017)
pIC50: −log10 of the molar value. One block for each compound: values may come before it.

Columns and labels:
[1] = biological target: recombinant human HDAC1 (Homo sapiens, UniProt Q13547); experiment: In vitro HDAC assay with fluorogenic substrate, HDAC 1
Description: Inhibition of HDAC 1 and HDAC 6 were analyzed with a fluorogenic substrate according to manufacture's protocol (HDAC assay reagents were purchased from BPS Biosciences, San Diego, Calif.). 50 μl reaction mixture, which contains 1×HDAC assay buffer, 5 units of recombinant human HDAC1 or HDAC 6, 10 μM substrate 3 and 1 μl inhibitor in DMSO, was incubated at 37° C. for 1 hour. […] The fluorescence intensity was measured at excitation of 360 nm and emission of 460 nm with SpectraMax Gemini XS microplate reader (Molecular Devices, Sunny Calif.).

[2] = system: LNCaP cells; experiment: Cell growth and viability by trypan blue exclusion, LNCaP
Description: (§1) 5×10^4 cells were seeded per well in a 24-well plate and cultured overnight prior to treating with the compound and/or other agents as indicated for each study. Cells were harvested at 24, 48 and 72 hrs after treatment by trypsin digestion. […] At least three independent analyses were performed for each time point.
(§2) To monitor cell growth and viability, cells were seeded in triplicate at 5×10^4 cells in 1 ml of medium in 24-well plates. The drugs were added at the indicated concentrations 24 h after seeding. Cells were harvested by trypsin digestion at 24 h, 48 h and 72 h following drug additions. Cell number and viability were determined by trypan blue exclusion.

[3] = system: acetylated α-tubulin and acetylated histone H3 in LNCaP cells; experiment: Accumulation of acetylated α-tubulin and acetylated histone H3 in LNCaP cells (Western blot); type: cell-based, human; settings: BAHA 1.0 or 1.5 μM, SAHA 1.5 and 2.0 μM
Description: 2×10^6 transformed cells were cultured for 24 hrs in a 10 cm tissue culture dish with 10 ml RPMI 1640 medium. HDAC inhibitors and/or other agents were added in concentrations as indicated for each study to the cultures and cell cultured for times indicated. Cells were harvested by scrapping, washed once with PBS, lyzed with histone extraction buffer (1 ml/10^7 cells), which contains 10 mM MgCl2, 10 mM Tris, 25 mM KCl, 1% Triton X-100, 8.6% sucrose and protease inhibitor cocktail (Roche Diagnostics Gmbh, Indianapolis, Ind.), pH 6.5. Cells were centrifuged at 600 g at 4° C. for 5 mins. The supernatants were saved as cell lyates. The pellets (nuclei) were washed once with TE buffer, suspended in 0.4 NH2SO4 (100 μl/10^7 cells), incubated for 1 hr on ice, and centrifuged at 10,000 g for 10 mins at 4° C. The supernatant was collected, mixed with 1 ml acetone, incubated at −20° C. for more than 1 hr, and centrifuged at 10,000 g for 10 mins at 4° C. The pellets were suspended in water (100 μl/10^7 cells). The protein concentrations were measured with Braford reagent (Bio-Rad, Hercules, Calif.).
1×10^6 cells in a 10 cm diameter cell culture dish were washed with PBS, harvested by trypsinization in 0.05% trypsin for LNCaP and 0.25% trypsin for MCF7, A549, HFS and WI38 resuspended in RIPA at 50 μl for every 1×10^6 cells. Antibodies used were: anti-acetylated tubulin (Sigma), anti-HDAC 6 (Santa Cruz Biotechnology), and anti-tubulin (Calbiochem), (Xu et al. Cancer Research, 65:7832-7839, 2005).

[4] = system: LNCaP HDAC 6 knockdown cells; experiment: Cell viability, LNCaP HDAC 6 knockdown cells; type: cell-based, human; settings: LNCaP HDAC 6 knockdown, 72 hrs
Text: shRNA lentiviral particles targeting different regions of HDAC6 mRNA, HDAC6 KD1 (HDAC6 knockdown 1) at 1.7×10^7 TU/ml and HDAC6 KD2 (HDAC6 knockdown 2) at 1.9×10^7 TU/ml, and a non-targeting ‘scramble’ shRNA control particles (#SHC002V) at 1.1×10^7 TU/ml, were purchased from Sigma-Aldrich and transfected according to the manufacturer's instructions using polybrene (Millipore). The 21-nucleotide sequence corresponding to HDAC6 mRNA for HDAC6 KD1 is 5′-[…]-3′ and for HDAC6 KD2 is 5′-[…]-3′. For each shRNA, 5×10^5 cells were infected at an MOT of 2.

[5] = system: γH2AX; experiment: Accumulation of γH2AX in LNCaP cells (Western blot, ImageJ quantitation); type: cell-based, human; settings: 24 h
Description: (§3) 1×10^6 cells were seeded in a 10 cm diameter cell culture dish and cultured overnight prior to addition of the indicated drugs, washed with PBS, harvested by trypsinisation and lysed in RIPA buffer (50 mM Tris-HCL pH8.0, 120 mM NaCl, 0.5 mM EDTA, 0.5% NP-40). […] Quantitation of western blots was performed using ImageJ.

[6] = system: HFS cells; experiment: Cell viability, normal human foreskin cells (HFS); type: cell-based; settings: 8 μM tubacin, 5 μM SAHA, alone or together
Description: as §1, §2

[7] = system: LNCaP cells; experiment: Microarray analysis of gene expression in LNCaP cells; type: cell-based, human; parameters: Total gene number: dose or concentration left out as unconfirmed
Description: Alterations in gene expression were evaluated by microarray using the Illumina human cDNA array containing cDNA probes representing the whole genome (10000 genes). […] Triplicate samples were prepared for each drug treatment at each time point. Poly(A)+ mRNA was isolated from cells using Trizol reagent according to manufacturer's protocol (Invitrogen). The data was analyzed using the Bioconductor packages (www.bioconductor.com) for the R statistical system. The output from Beadstudio was processed using the LUMI package. The normalization method used was quantile and the signal levels were log (base 2) transformed. To determine genes that are differentially expressed between the various sample types, the LIMMA package was used.

[8] = system: PARP; experiment: PARP cleavage in LNCaP cells (Western blot); settings: 48 h
Description: as §3

[9] = system: WI38 cells; experiment: Cell viability, normal human embryonic fibroblast WI38; type: cell-based; settings: 8 μM tubacin, 5 μM SAHA, alone or together
Description: as §1

[10] = system: phospho-Chk2; experiment: Accumulation of phospho-Chk2 in LNCaP cells (Western blot); type: cell-based, human; settings: 24 h
Description: as §3

[11] = system: LNCaP cells; experiment: Cell cycle analysis by flow cytometry, LNCaP; type: cell-based, human; settings: 24 h, propidium iodide
Description: Cells were harvested at 24 h culture with the indicated drugs, washed with PBS and fixed in methanol. Cells were then resuspended in a buffer containing […] propidium iodide and […] RNase A. Samples were analysed by flow cytometry using a Becton Dickinson FACSCalibur flow cytometer. Data were collected for 10,000 events and analyzed using FlowJo software.

[12] = system: MCF-7 cells; experiment: Cell growth and viability by trypan blue exclusion, MCF-7; type: cell-based, human; settings: MCF-7, 72 hrs; 8 μM tubacin, 5 μM SAHA, […] doxorubicin, 100 μM etoposide, alone or plus 8 μM tubacin
Description: as §1, §2

[13] = system: LNCaP cells; experiment: Quantitative real-time PCR in LNCaP cells; type: cell-based, human; settings: quantitative real-time PCR
Description: […] of total RNA was reverse-transcribed using the Thermoscript RT-PCR system (Invitrogen) at 52° C. for 1 h. 20 ng of resultant cDNA was used in a Q-PCR reaction using an 7500 Real-Time PCR System (Applied Biosystems) using predesigned primers for DDIT3, DDIT4, Mcm4, Mcm6, Cdt1, Psf2 and GAPDH (Applied Biosystems). Amplification was carried for 40 cycles (95° C. for 15 sec, 60° C. for 1 min). To calculate the efficiency of the PCR reaction, and to assess the sensitivity of each assay, we performed a 6 point standard curve (5, 1.7, 0.56, 0.19, 0.062, and 0.021 ng). Triplicate CT values were averaged, amounts of target were interpolated from the standard curves and normalized to GAPDH (assay Hs99999909_m1).

[14] = system: acetylated tubulin and acetylated histone H3 in A549 cells; settings: 24 hrs, tubacin 0.2, 2 or 20 μM; cited from earlier work
[15] = LNCaP, 25 μM or 50 μM SAHA, 72 hrs

recombinant human HDAC1, sequence (Q13547 whole entry): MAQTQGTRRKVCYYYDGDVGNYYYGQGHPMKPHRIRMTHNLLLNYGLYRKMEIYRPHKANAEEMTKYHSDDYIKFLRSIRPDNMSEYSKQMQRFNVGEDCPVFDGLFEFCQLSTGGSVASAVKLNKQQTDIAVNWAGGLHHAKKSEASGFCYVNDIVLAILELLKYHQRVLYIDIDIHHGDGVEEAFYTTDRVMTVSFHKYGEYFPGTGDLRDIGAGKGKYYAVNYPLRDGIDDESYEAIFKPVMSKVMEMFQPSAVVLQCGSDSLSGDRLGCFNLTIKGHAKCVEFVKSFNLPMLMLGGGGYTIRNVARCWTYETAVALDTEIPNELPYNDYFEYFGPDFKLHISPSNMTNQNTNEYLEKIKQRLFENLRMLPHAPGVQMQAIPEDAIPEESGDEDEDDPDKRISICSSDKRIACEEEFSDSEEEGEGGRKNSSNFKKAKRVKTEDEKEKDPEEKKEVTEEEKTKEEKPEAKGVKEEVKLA

pIC50 [1]: 7.27
SMILES: CC(C)(C)OC(=O)Nc1ccc(-c2cc(C(=O)NCCCCCCC(=O)NO)no2)cc1 [BAHA]
cell death ([2]; LNCaP, 1 μM BAHA): no cell death | cell growth ([2]; LNCaP, 1 μM BAHA): moderate inhibition | accumulation of acetylated histone H3 [3]: little or no accumulation | accumulation of acetylated α-tubulin [3]: caused the accumulation

SMILES: O=C(CCCCCCC(=O)Nc1ccccc1)NO [SAHA, Suberoylanilide Hydroxamic Acid]
cell death ([4]; 2.5 μM SAHA): 25% | cell death ([4]; 5.0 μM SAHA): 80% | accumulation of γH2AX [5]: increased | cell death [6]: did not cause cell death | DDIT3 gene expression change ([7]; 2 h): 2.18 fold | DDIT4 gene expression change ([7]; 2 h): * (No detectable change of ≧2-fold) | Total gene number ([7]; 2 h, genes changed ≧2-fold): 37 | Downregulated genes ([7]; 2 h, ≧2-fold): 16 | Upregulated genes ([7]; 2 h, ≧2-fold): 21 | DDIT4 gene expression change ([7]; 8 h): 5.36 fold | Downregulated genes ([7]; 8 h, ≧2-fold): 302 | Total gene number ([7]; 8 h, ≧2-fold): 628 | Upregulated genes ([7]; 8 h, ≧2-fold): 326 | DDIT4 gene expression change ([7]; 24 h): 3.81 fold | Downregulated genes ([7]; 24 h, ≧2-fold): 989 | Total gene number ([7]; 24 h, ≧2-fold): 1951 | Upregulated genes ([7]; 24 h, ≧2-fold): 962 | cell death ([2]; LNCaP, 1.25 μM SAHA, alone or plus 1 μM BAHA, 72 hrs): no detectable cell death | cell death ([2]; LNCaP, 2.5 μM SAHA, alone or plus 1 μM BAHA, 72 hrs): less than 10% | cell death ([2]; LNCaP, 2.5 μM SAHA, alone or with 8 μM tubacin, 72 hrs): no detectable | cell death ([2]; LNCaP, 5 μM SAHA, alone or plus 1 μM BAHA, 72 hrs): 65% | cell death ([2]; LNCaP, 5 μM SAHA, alone or with 8 μM tubacin, 72 hrs): 45% | cell death [2, 15]: 100% | cell growth [2, 15]: growth inhibition | rate of cell growth ([2]; LNCaP, 2.5, 5 or […] SAHA, alone or plus 8 μM tubacin): markedly decreased | cell death ([2]; LNCaP, […] SAHA, alone or plus 8 μM tubacin, after 8 hrs): 40% | cell death ([2]; wild type LNCaP, 2.5 μM SAHA, 72 hrs (knockdown comparison)): no cell death | cell death ([2]; wild type LNCaP, 5.0 μM SAHA, 72 hrs (knockdown comparison)): 35% | PARP cleavage ([8]; 2.5 mM SAHA): did not result in PARE cleavage | PARP cleavage ([8]; 5 mM SAHA): resulted in PARP cleavage | cell death [9]: did not cause cell death | level of phospho-Chk2 [10]: increase of phospho-Chk2 | cell cycle distribution [11]: increase in both G1 and G2 arrested cells | accumulation of acetylated histone H3 [3]: caused an increase in accumulation | accumulation of acetylated α-tubulin [3]: caused an increase in accumulation | cell death [12]: 40% | rate of cell growth [12]: markedly decreased | expression of Mcm4, Mcm6, Cdt1 and Psf2 [13]: downregulated

SMILES: CC(/C=C/C(=O)NO)=C\[C@@H](C)C(=O)c1ccc(N(C)C)cc1 [Trichostatin A]
accumulation of acetylated histone H3 [14]: caused the accumulation | accumulation of acetylated tubulin [14]: caused the accumulation
